The values below come from article PMC7582876, “Antiproliferative Properties of a Few Auranofin-Related Gold(I) and Silver(I) Complexes in Leukemia Cells and their Interferences with the Ubiquitin Proteasome System” (Molecules, 2020).

What all share (type): biochemical
In assay [1] the test system is human cathepsin-L (Cat-L). Briefly: Cathepsin-L inhibition screening. The conditions noted are these: over 10 min. As for the experimental part: 20S proteasome, isolated and purified from human erythrocytes, was obtained from a commercial source (Biomol GmbH, Hamburg, Germany), as well as the peptidic substrates (Bachem, Bubendorf, Switzerland) Suc-Leu-Leu-Val-Tyr-AMC, Boc-Leu-Arg-Arg-AMC and Cbz-Leu-Leu-Glu-AMC for ChT-L, T-L and PGPH (C-L) activity of the enzyme, respectively. The three distinct proteolytic activities of the 20S proteasome were measured by monitoring the hydrolysis of the substrates and detecting the fluorescence of the common product released, i.e., 7-amino-4-methyl coumarin (7-AMC), by means of an Infinite 200 PRO microplate reader (Tecan, Männedorf, Switzerland) at 30 °C with a 380-nm excitation filter and a 460-nm emission filter. All gold and silver complexes were tested against the three proteolytic activities of the 20S proteasome and against Cat-B, Cat-L and bovine pancreatic α-chymotrypsin at 10 µM concentrations over a period of 10 min using an equivalent amount of DMSO as a negative control. […]. The IC50 values were calculated with the program GraFit® using the two-parameter equation. More detailed experimental protocols for the assays against each proteolytic activity of the 20S proteasome, as well as against bovine pancreatic α-chymotrypsin, are already reported elsewhere (see also Supplementary Materials). Cat-B and Cat-L were purchased from Calbiochem, Darmstadt, Germany, and the related assays were performed as previously described. The employed fluorogenic substrate for both cysteine proteases was Cbz-Phe-Arg-AMC (80 µM for Cat-B; 5 µM for Cat-L). […]
Assay for Cathepsin-B and Cathepsin-L Inhibition
Assays were performed at 25 °C in a 20 mM Tris-HCl buffer, pH 6.0, containing 5 mM
EDTA, 2.5 mM DTT, 200 mM NaCl, 0.005% Brij 35 in a total volume of 285 µL. Substrate
(Cbz-Phe-Arg-AMC for both enzymes) and inhibitor stock solutions were prepared in
DMSO (10% final concentration) and were diluted with assay buffer; enzymes were held
for CB (recombinant, human liver). Inhibitors were used at concentrations between 0.35
µM and 140 µM. Product release from substrate hydrolysis was determined over a period

The target of assay [2] is T1, human cathepsin-B (Cat-B) (Homo sapiens, UniProt P07858).
T1 construct: purchased Calbiochem, Darmstadt, Germany; host or cells: recombinant
Briefly: Cathepsin-B inhibition screening. The conditions noted are these: over 10 min. As for the experimental part:
The IC50 values were calculated with the program GraFit® using the two-parameter equation. More detailed experimental protocols for the assays against each proteolytic activity of the 20S proteasome, as well as against bovine pancreatic α-chymotrypsin, are already reported elsewhere (see also Supplementary Materials). Cat-B and Cat-L were purchased from Calbiochem, Darmstadt, Germany, and the related assays were performed as previously described. […] Assay for Bovine Pancreatic α-Chymotrypsin Inhibition The enzyme ([…]) was incubated at 20 °C with the test compound present at 10 μM (screening assay). The reaction buffer consisted of 50 mM Tris buffer pH 8.0 containing 100 mM NaCl, 5 mM EDTA and 7.5% DMSO. Product release from substrate hydrolysis ([…] final concentration, Suc-[…] from Bachem) was determined over a period of 10 min. Assay for Cathepsin-B and Cathepsin-L Inhibition Assays were performed at 25 °C in a 20 mM Tris-HCl buffer, pH 6.0, containing 5 mM […] Substrate (Cbz-Phe-Arg-AMC for both enzymes) and inhibitor stock solutions were prepared in DMSO (10% final concentration) and were diluted with assay buffer; enzymes were held in buffer. The final substrate concentration for inhibition assays was between 10.0 and 81.0 […] for CB (recombinant, human liver). […] μM and 140 μM. Product release from substrate hydrolysis was determined over a period of 10 min.

Assay [3] deals with T2, chymotrypsin-like (ChT-L) activity of human 20S proteasome (Homo sapiens, UniProt P28074).
T2 construct: 20S proteasome, isolated and purified from human erythrocytes; purchased Biomol GmbH, Hamburg, Germany; host or cells: human erythrocytes (native complex)
As to the kind of experiment: Inhibition of chymotrypsin-like activity of 20S proteasome (Suc-Leu-Leu-Val-Tyr-AMC). The following applies: for ChT-L inhibition at 10 µM: over 10 min; for IC50: 10 min, no pre-incubation, 30 °C. As for the experimental part: 20S proteasome, isolated and purified from human erythrocytes, was obtained from a commercial source (Biomol GmbH, Hamburg, Germany), as well as the peptidic substrates (Bachem, Bubendorf, Switzerland) Suc-Leu-Leu-Val-Tyr-AMC, Boc-Leu-Arg-Arg-AMC and Cbz-Leu-Leu-Glu-AMC for ChT-L, T-L and PGPH (C-L) activity of the enzyme, respectively. The three distinct proteolytic activities of the 20S proteasome were measured by monitoring the hydrolysis of the substrates and detecting the fluorescence of the common product released, i.e., 7-amino-4-methyl coumarin (7-AMC), by means of an Infinite 200 PRO microplate reader (Tecan, Männedorf, Switzerland) at 30 °C with a 380-nm excitation filter and a 460-nm emission filter. All gold and silver complexes were tested against the three proteolytic activities of the 20S proteasome and against Cat-B, Cat-L and bovine pancreatic α-chymotrypsin at 10 µM concentrations over a period of 10 min using an equivalent amount of DMSO as a negative control. […] The IC50 values were calculated with the program GraFit® using the two-parameter equation. More detailed experimental protocols for the assays against each proteolytic activity of the 20S proteasome, as well as against bovine pancreatic α-chymotrypsin, are already reported elsewhere (see also Supplementary Materials). Cat-B and Cat-L were purchased from Calbiochem, Darmstadt, Germany, and the related assays were performed as previously described. The employed fluorogenic substrate for both cysteine proteases was Cbz-Phe-Arg-AMC (80 µM for Cat-B; 5 µM for Cat-L). […]
Inhibition assay for the Chymotryptic Activity of the 20S Proteasome
Human 20S proteasome was incubated at 30 °C at a final concentration of 0.004 mg∙mL−1
with test compound present at 10 µM (screening assay) or at variable concentrations
(continuous assay). The reaction buffer consisted of 50 mM Tris pH 7.5, 10 mM NaCl, 25
mM KCl, 1 mM MgCl2, 0.03% SDS and 5% DMSO. Product release from substrate
hydrolysis ([…]) was monitored continuously over a period of 10 min. […]

With `CC[PH](CC)(CC)[Ag][Br]` [Ag(PEt3)Br], in assay [1], the “Cat-L Inhibition (%) at 10 µM” value is reported as “n.i”. Besides, the “Cat-B Inhibition (%) at 10 µM” value in assay [2] is reported as “n.i”. Also, the “ChT-L inhibition at 10 µM” value in assay [3] was 22 ± 0.4%.

For `CC[PH](CC)(CC)[Ag][Cl]` [Ag(PEt3)Cl], in assay [1], the “Cat-L Inhibition (%) at 10 µM” value is given as “n.i”. In addition, the “Cat-B Inhibition (%) at 10 µM” value in assay [2] was “n.i”. Besides, in assay [3], the “ChT-L inhibition at 10 µM” value is recorded as 28 ± 0.5%.

Turning to `CC[PH](CC)(CC)[Ag][I]` [Ag(PEt3)I], the “Cat-L Inhibition (%) at 10 µM” value in assay [1] is “n.i”. For the same compound, the “Cat-B Inhibition (%) at 10 µM” value in assay [2] is on record as “n.i”. For the same compound, the “ChT-L inhibition at 10 µM” value in assay [3] is 25 ± 0.2%.

Broadly, the IC50 is the concentration needed to halve the response being measured. A high value points to lower potency. Consider `CCP(CC)CC.[Br][Au]` [Au(PEt3)Br], for which the “Cat-L Inhibition (%) at 10 µM” value in assay [1] was “n.i”. Moreover, the “Cat-B Inhibition (%) at 10 µM” value in assay [2] is on record as 31 ± 2.2%. 1400 ± 800 nM corresponded to half-maximal inhibition in assay [3] (IC50).

On to `CCP(CC)CC.[Au+].[Cl-]` [Au(PEt3)Cl], for which the “Cat-L Inhibition (%) at 10 µM” value in assay [1] is “n.i”. Further, in assay [2], the “Cat-B Inhibition (%) at 10 µM” value was 29 ± 0.2%. The compound further gave an IC50 in assay [3] of 2600 ± 300 nM.

`CC[P](CC)(CC)[Au][I]` [Au(PEt3)I]: in assay [1], the “Cat-L Inhibition (%) at 10 µM” value is “n.i”. The “Cat-B Inhibition (%) at 10 µM” value in assay [2] worked out at 29 ± 1.7%. The IC50 in assay [3] worked out at 6100 ± 400 nM.

In the case of `CCP(CC)CC.CCP(CC)CC.O=[N+]([O-])[O-].[Ag+]` [[Ag(PEt3)2]NO3], the “Cat-L Inhibition (%) at 10 µM” value in assay [1] amounted to 20 ± 0.4%. Also, the “Cat-B Inhibition (%) at 10 µM” value in assay [2] is given as “n.i”. For the same compound, the “ChT-L inhibition at 10 µM” value in assay [3] came out at 38 ± 5.0%.

Consider `CC(=O)OC[C@H]1O[C@@H]([S-])[C@H](OC(C)=O)[C@@H](OC(C)=O)[C@@H]1OC(C)=O.CCP(CC)CC.[Au+]` [auranofin, Auranofin], for which, in assay [1], the “Cat-L Inhibition (%) at 10 µM” value was “n.i”. Further, the “Cat-B Inhibition (%) at 10 µM” value in assay [2] was “n.i”. In assay [3], the “ChT-L inhibition at 10 µM” value is given as “n.i. ^a”.
